Patent publication US6686382B2, “Sulfonamides and derivatives thereof that modulate the activity of endothelin” (Encysive Pharmaceuticals Inc., priority 1999, dated 2004)
Read-outs that look alike come from different tables or passages of the source.

Assays:
ETB receptors = settings: concentrations up to 100 μM; cited from earlier work
ETA receptor = settings: read-out: IC50, inhibition of 125I-labelled endothelin-1 binding, cited from earlier work
[1] = Pharmacokinetic properties (oral availability, elimination half-life, Cmax); format: in vivo
Source text: As used herein, bioavailability or oral availability refers to the rate and extent of absorption. Methods for determining bioavailability or oral availability are well known to those of skill in the art. For example, bioavailability or oral availability of any of the compounds described herein can be determined empirically by administration of the compound to an animal, followed by taking blood samples over time and measuring the blood concentration of the compound. In vivo half life (t1/2) is defined as the time it takes for the concentration of the compound in the blood to be reduced by one-half. Estimations of the area under the curve for intravenous administration can be used to estimate the area under the curve for oral administration, yielding bioavailability data. See, e.g., Milo Gibal (1991) Biopharmaceutics and Pharmacology, 4th edition (Lea and Sediger).

[2] = test system: ETA receptors and ETB receptors; assay: Endothelin binding inhibition, ETA (TE 671) and ETB (transfected COS7) receptors: selectivity; parameters: species or system human; settings: antagonism of ETA receptors over ETB receptors
Source text: (§1) Compounds that are potential endothelin antagonists are identified by testing their ability to compete with ^125I-labeled ET-1 for binding to human ETA receptors or ETB receptors present on isolated cell membranes. The effectiveness of the test compound as an antagonist or agonist of the biological tissue response of endothelin can also be assessed by measuring the effect on endothelin induced contraction of isolated rat thoracic aortic rings. The ability of the compounds to act as antagonists or agonists for ETB receptors can be assess by testing the ability of the compounds are to inhibit endothelin-1 induced prostacyclin release from cultured bovine aortic endothelial cells.
(§2) A. Endothelin Binding Inhibition—Binding Test #1: Inhibition of Binding to ETA Receptors
(§3) TE 671 cells (ATCC Accession No. HTB 139) express ETA receptors. These cells were grown to confluence in T-175 flasks. Cells from multiple flasks were collected by scraping, pooled and centrifugedfor 10 min at 190×g. The cells were resuspended in phosphate buffered saline (PBS) containing 10 mM EDTA using a Tenbroeck homogenizer. The suspension was centrifuged at 4° C. at 57,800×g for 15 min, the pellet was resuspended in 5 ml of buffer A (5 mM HEPES buffer, pH 7.4 containing aprotinin (100 KIU/ml)) and then frozen and thawed once. 5 ml of Buffer B (5 mM HEPES Buffer, pH 7.4 containing 10 mM MnCl2 and 0.001% deoxyribonuclease Type 1) was added, the suspension mixed by inversion and then incubated at 37° C. for 30 minutes. The mixture was centrifuged at 57,800×g as described above, the pellet washed twice with buffer A and then resuspended in buffer C (30 mM HEPES buffer, pH 7.4 containing aprotinin (100 KIU/ml) to give a final protein concentration of 2 mg/ml and stored at −70° C. until use.
(§4) The membrane suspension was diluted with binding buffer (30 mM HEPES buffer, pH 7.4 containing 150 mM NaCl, 5 mM MgCl2, 0.5% Bacitracin) to a concentration of 8 μg/50 μl. ^125I-endothelin-1 (3,000 cpm, […]) was added to 50 μL of either: (A) endothelin-1 (for non specific binding) to give a final concentration 80 nM); (B) binding buffer (for total binding); or (C) a test compound (final concentration 1 nM to 100 μM). The membrane suspension (50 μL), containing up to 8 μg of membrane protein, was added to each of (A), (B), or (C). Mixtures were shaken, and incubated at 4° C. for 16-18 hours, and then centrifuged at 4° C. for 25 min at 2,500×g. Alternatively, the incubation was conducted at 24° C. […] This, must be kept in mind when comparing IC50 concentrations among compounds provided herein.
(§5) The supernatant, containing unbound radioactivity, was decanted and the pellet counted on a Genesys multiwell gamma counter. The degree of inhibition of binding (D) was calculated according to the following equation: [formula]
B. Endothelin Binding Inhibition—Binding Test #2: Inhibition of Binding to ETB Receptors
COS7 cells were transfected with DNA encoding the ETB receptor, The resulting cells, which express the human ETB receptor, were grown to confluence in T-150 flasks. Membrane was prepared as described above. The binding assay was performed as described above using the membrane preparation diluted with binding buffer to a concentration of 1 μg/50 μl.
Briefly, the COS7 cells, described above, that had been transfected with DNA encoding the ETB receptor and express the human ETB receptor on their surfaces were grown to confluence in T-175 flasks. […]

human ETA receptors = target: T1, human ETA receptors (Homo sapiens, UniProt P25101); assay: Endothelin binding inhibition, Binding Test #1: inhibition of binding to ETA receptors (TE 671 cell membranes); settings: relative to N-(4-chloro-3-methyl-5-isoxazolyl)-2-{[3,4-(methylenedioxy)-6-methylphenyl)acetyl]-thiophene-3-sulfonamide (= 1.0)
T1 construct: endogenous in cells; host or cells: TE 671 cells (ATCC HTB 139), membrane preparation
T1 sequence (P25101 21-427): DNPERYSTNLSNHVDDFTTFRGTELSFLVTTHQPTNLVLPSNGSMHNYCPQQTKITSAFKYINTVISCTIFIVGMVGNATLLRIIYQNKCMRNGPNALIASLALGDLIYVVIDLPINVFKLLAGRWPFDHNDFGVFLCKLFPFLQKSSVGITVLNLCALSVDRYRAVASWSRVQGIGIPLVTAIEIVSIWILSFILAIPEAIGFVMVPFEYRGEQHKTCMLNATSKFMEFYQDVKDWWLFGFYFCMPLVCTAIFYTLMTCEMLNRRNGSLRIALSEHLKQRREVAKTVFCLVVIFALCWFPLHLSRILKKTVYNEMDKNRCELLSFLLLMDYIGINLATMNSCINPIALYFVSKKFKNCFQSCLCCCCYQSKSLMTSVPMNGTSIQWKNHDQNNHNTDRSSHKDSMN
Source text: as §1, §2, §3, §4, §5
Each test was generally performed in triplicate.

isolated vascular strips = settings: read-out: EC50, contractile agent; cited from earlier work

## cyclo(D-Glu-L-Ala-allo-D-Ile-L-Leu-D-Trp) [BE-18257B]
ETB receptors
  inhibition of binding to receptors in tissues in which ETB receptors predominate: fails to inhibit binding
ETA receptor; aortic smooth muscle
  IC50: 1.4 µM
ETA receptor; cultured aortic smooth muscle cells
  IC50: 0.5 µM
ETA receptor; ventricle membranes
  IC50: 0.8 µM

## Cc1cc(C)c(NC(=O)c2sccc2S(=O)(=O)Nc2onc(C)c2Cl)c(-c2ncco2)c1 [Compound 44, 3-{[(4-chloro-3-methyl-5-isoxazolyl)amino]sulfonyl}-N-[2,4-dimethyl-6-(1,3-oxazol-2-yl)phenyl]-2-thiophenecarboxamide]
[1]; blood, read-out: t½ elim. (converted)
  half-life: 5.3 h
[1]; in vivo
  Cmax: 66 µg/mL
[2]
  Selectivity (IC50 for ETB/IC50 for ETA): 119,000
Human ETA receptors
  ETA ACTIVITY (ETA antagonist activity relative to reference compound): 17.9
other
  melting point: 176 to 178 °C

## endothelin-1: potent twenty-one amino acid peptide vasoconstrictor
Isolated vascular strips
  EC50: 0.0004 µM
